In data set [1] the target is T1, Protein deacetylase HDAC6 (Homo sapiens, UniProt Q9UBN7).
T1 sequence (Q9UBN7 whole entry): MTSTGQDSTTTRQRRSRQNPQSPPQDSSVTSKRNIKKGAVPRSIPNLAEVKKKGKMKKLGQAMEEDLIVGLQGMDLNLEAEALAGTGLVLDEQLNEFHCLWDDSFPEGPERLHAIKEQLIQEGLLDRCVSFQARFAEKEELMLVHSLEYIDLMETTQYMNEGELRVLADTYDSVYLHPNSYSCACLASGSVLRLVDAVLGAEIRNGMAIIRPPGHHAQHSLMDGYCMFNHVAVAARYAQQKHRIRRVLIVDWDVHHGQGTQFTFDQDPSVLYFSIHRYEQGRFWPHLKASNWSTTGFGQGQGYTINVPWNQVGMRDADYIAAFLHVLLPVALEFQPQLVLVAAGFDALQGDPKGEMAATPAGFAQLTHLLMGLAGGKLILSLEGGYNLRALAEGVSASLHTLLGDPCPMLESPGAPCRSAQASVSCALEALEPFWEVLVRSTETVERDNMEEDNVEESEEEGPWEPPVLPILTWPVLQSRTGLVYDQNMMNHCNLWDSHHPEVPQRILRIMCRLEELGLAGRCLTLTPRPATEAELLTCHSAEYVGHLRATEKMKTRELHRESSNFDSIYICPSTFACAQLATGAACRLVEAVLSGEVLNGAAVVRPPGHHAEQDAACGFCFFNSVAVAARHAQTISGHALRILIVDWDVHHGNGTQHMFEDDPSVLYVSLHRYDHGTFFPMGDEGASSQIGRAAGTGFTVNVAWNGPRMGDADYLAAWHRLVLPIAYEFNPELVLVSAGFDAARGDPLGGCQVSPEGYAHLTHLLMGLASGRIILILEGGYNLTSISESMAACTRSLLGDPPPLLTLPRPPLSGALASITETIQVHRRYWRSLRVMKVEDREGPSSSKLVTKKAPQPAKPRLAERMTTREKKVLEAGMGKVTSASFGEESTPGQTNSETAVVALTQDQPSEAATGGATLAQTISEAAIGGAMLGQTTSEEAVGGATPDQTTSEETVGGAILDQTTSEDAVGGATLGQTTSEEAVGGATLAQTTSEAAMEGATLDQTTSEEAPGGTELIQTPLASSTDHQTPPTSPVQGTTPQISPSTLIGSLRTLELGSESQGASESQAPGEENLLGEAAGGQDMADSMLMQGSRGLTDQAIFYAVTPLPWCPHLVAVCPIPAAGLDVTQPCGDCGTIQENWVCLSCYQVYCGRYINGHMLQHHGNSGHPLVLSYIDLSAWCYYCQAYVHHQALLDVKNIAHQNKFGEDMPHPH
In words: Inhibition of HDAC6 (unknown origin) using 6-carboxyfluorescein peptide as substrate incubated for 18 hrs by fluorescence based assay.

Data set [2] deals with T2, Histone deacetylase 1 (Homo sapiens, UniProt Q13547). In words: Inhibition of HDAC1 (unknown origin) using 6-carboxyfluorescein peptide as substrate incubated for 18 hrs by fluorescence based assay.
Data set [3] concerns A549. In words: Antiproliferative activity against human A549 cells assessed as inhibition of cell growth measured after 72 hrs by MTT assay. The class given is functional, cell-based. The conditions noted are these: A549, 72 h, pooled result: one value given for 8 cell lines, strains, targets or settings. A general note: Tetrazolium assays rely on reduction of a dye to a coloured formazan, in cell work by metabolically active cells.

Data set [4] in a line: Metabolic stability in rat liver microsomes assessed as half life incubated for 60 mins in presence of NADPH by LC-MS/MS analysis. It counts as ADME, Microsome. (Microsomes from liver hold many membrane-bound enzymes, among them those of drug oxidation.)
Data set [5] in a line: Metabolic stability in mouse liver microsomes assessed as half life incubated for 60 mins in presence of NADPH by LC-MS/MS analysis. The class given is ADME, Microsome.
The nature of data set [6]: Metabolic stability in human liver microsomes assessed as half life incubated for 60 mins in presence of NADPH by LC-MS/MS analysis. The class given is ADME, Microsome.
Data set [7] deals with U-87 MG. In words: Antitumor activity against human U87 cells xenografted in mouse assessed as tumor growth inhibition at 20 mg/kg, po relative to control. The class given is functional, U-87MG ATCC. To be noted: read-out: TGI.
A short description of data set [8]: Oral bioavailability in female […] at 10 mg/kg. The class given is ADME, organism-based. The conditions noted are these: in vivo.
Data set [9] addresses T3, Histone deacetylase 2 (Homo sapiens, UniProt Q92769). In words: Inhibition of HDAC2 (unknown origin) using 6-carboxyfluorescein peptide as substrate incubated for 18 hrs by fluorescence based assay.
Data set [10] in a line: Antiproliferative activity against human MCF-10F cells assessed as reduction in cell viability incubated for 48 hrs by MTT assay. The class given is toxicity, cell-based.
The test system of the next data set is MDA-MB-231. In words: Antitumor activity against human MDA-MB-231 cells in nude mouse assessed as tumor growth inhibition at 20 mg/kg, ip administered once daily for 30 days relative to control. To be noted: MDA-MB-231, 720 h, time 30 day, read-out: TGI. The class given is functional.
Data set [11] in a line: Antiproliferative activity against human MCF-10A cells assessed as reduction in cell viability incubated for 48 hrs by MTT assay. The class given is toxicity, cell-based.
The nature of data set [12]: Antiproliferative activity against human BEAS-2B cells assessed as reduction in cell viability incubated for 48 hrs by MTT assay. It counts as toxicity, cell-based.
The target of data set [13] is T3, Histone deacetylase 2. In words: Inhibition of HDAC2 (unknown origin) using Boc-Lys-(Ac)-AMC as substrate incubated for 60 mins by fluorescence based analysis.
Data set [14] deals with T1, Protein deacetylase HDAC6. In words: Inhibition of HDAC6 (unknown origin).
A further data set addresses Histone deacetylase 3 (Homo sapiens, UniProt O15379). In words: Inhibition of HDAC3 (unknown origin).
The next data set has as its target Histone deacetylase 4 (Homo sapiens, UniProt P56524). In words: Inhibition of HDAC4 (unknown origin).
A short description of data set [15]: Cytotoxicity against human PBMC cells. The class given is toxicity, cell-based.
The nature of data set [16]: Antitumor activity against mouse WEHI-3 cells implanted in mouse assessed as survival time at 25 mg/kg, ip (reference value: 16 day). It counts as functional.
Data set [17] is described as follows: Antitumor activity against mouse WEHI-3 cells implanted in mouse assessed as reduction in tumor growth at 25 mg/kg, ip relative to control. Details: scale not given: the % may be the effect or the level left. The class given is functional.
In data set [18] the target is T3, Histone deacetylase 2. In words: Inhibition of HDAC2 (unknown origin).
The nature of data set [19]: Cytotoxicity against HEK293T cells. It counts as toxicity, cell-based, HEK-293T. To be noted: human.
Data set [20] concerns the target T2, Histone deacetylase 1. In words: Inhibition of HDAC1 (unknown origin).
In a further data set the test system is HL-60. In words: Antiproliferative activity against human HL-60 cells assessed as cell growth inhibition by MTT assay. It counts as functional, cell-based.
A further data set has as its system U-937. In words: Antiproliferative activity against human U-937 cells assessed as cell growth inhibition by MTT assay. The class given is functional, cell-based.
Data set [21] concerns U-87 MG. In words: Antiproliferative activity against human U87 cells assessed as reduction in cell growth incubated for 72 hrs by MTT assay. It counts as functional, cell-based, U-87MG ATCC.
The test system of another data set is U-251. In words: Antiproliferative activity against human U-251 cells assessed as reduction in cell growth incubated for 72 hrs by MTT assay. The conditions noted are these: U-251, 72 h. It counts as functional, cell-based.
In data set [22] the test system is HCT-116. In words: Antiproliferative activity against human HCT-116 cells assessed as reduction in cell growth measured for 48 hrs by MTT assay. It counts as functional, cell-based. The conditions noted are these: HCT-116, 48 h.
Data set [23] deals with T3, Histone deacetylase 2. In words: Inhibition of human HDAC2 by colorimetric ELISA assay. A general note: An ELISA detects its analyte on a solid surface through an enzyme-linked reagent.
Data set [24] deals with HepG2. In words: Antiproliferative activity against human HepG2 cells assessed as reduction in cell growth measured for 48 hrs by MTT assay. It counts as functional, cell-based. The conditions noted are these: HepG2, 48 h.
Data set [25] deals with A549. In words: Antiproliferative activity against human A549 cells assessed as reduction in cell growth measured for 48 hrs by MTT assay. The class given is functional, cell-based. The conditions noted are these: A549, 48 h.
The test system of data set [26] is MCF7. In words: Antiproliferative activity against human MCF7 cells assessed as reduction in cell growth measured for 48 hrs by MTT assay. To be noted: MCF7, 48 h. The class given is functional, cell-based.
Data set [27] concerns the target T2, Histone deacetylase 1. In words: Inhibition of human HDAC1 by colorimetric ELISA assay.
The test system of data set [28] is MCF7. In words: Antiproliferative activity against human MCF7 cells measured after 24 hrs by MTT assay. The class given is functional, cell-based. The conditions noted are these: MCF7, 24 h.
Data set [29] has as its system Ehrlich. In words: Antitumor activity against mouse EAC cells implanted in mouse assessed as reduction in tumor volume at 0.5 mg/kg, ip relative to control. The class given is functional. Details: scale not given: the % may be the effect or the level left.
For data set [30], the system named is HCT-116. In words: Antiproliferative activity against human HCT-116 cells measured after 24 hrs by MTT assay. It counts as functional, cell-based. The conditions noted are these: HCT-116, 24 h.
Data set [31] concerns HepG2. In words: Antiproliferative activity against human HepG2 cells measured after 24 hrs by MTT assay. The class given is functional, cell-based. The conditions noted are these: HepG2, 24 h.
Data set [32] addresses T2, Histone deacetylase 1. In words: Inhibition of human HDAC1 incubated for 30 mins by ELISA. To be noted: pooled result: one value given for 5 cell lines, strains, targets or settings.
Data set [33] deals with Ehrlich. In words: Antitumor activity against mouse EAC cells implanted in mouse assessed as increase in life span at 0.5 mg/kg, ip relative to control. It counts as functional.
Another data set deals with HeLa. In words: Antiproliferative activity against human HeLa cells measured after 24 hrs by MTT assay. The class given is functional, cell-based.
The next data set has as its system SH-SY5Y. In words: Antiproliferative activity against human SH-SY5Y cells by MTT assay. The class given is functional, cell-based.
The next data set relates to HT-29. In words: Antiproliferative activity against human HT-29 cells assessed as reduction in cell growth by MTT assay. The class given is functional, cell-based.
Data set [34] concerns the target T1, Protein deacetylase HDAC6. In words: Inhibition of HDAC6 (unknown origin) using ZMAL (Z-Lys(Ac)-AMC as fluorogenic substrate pre-incubated for 15 mins followed by susbtrate addition and measured for 45 mins by fluorescence based analysis.

T2 sequence (Q13547 whole entry): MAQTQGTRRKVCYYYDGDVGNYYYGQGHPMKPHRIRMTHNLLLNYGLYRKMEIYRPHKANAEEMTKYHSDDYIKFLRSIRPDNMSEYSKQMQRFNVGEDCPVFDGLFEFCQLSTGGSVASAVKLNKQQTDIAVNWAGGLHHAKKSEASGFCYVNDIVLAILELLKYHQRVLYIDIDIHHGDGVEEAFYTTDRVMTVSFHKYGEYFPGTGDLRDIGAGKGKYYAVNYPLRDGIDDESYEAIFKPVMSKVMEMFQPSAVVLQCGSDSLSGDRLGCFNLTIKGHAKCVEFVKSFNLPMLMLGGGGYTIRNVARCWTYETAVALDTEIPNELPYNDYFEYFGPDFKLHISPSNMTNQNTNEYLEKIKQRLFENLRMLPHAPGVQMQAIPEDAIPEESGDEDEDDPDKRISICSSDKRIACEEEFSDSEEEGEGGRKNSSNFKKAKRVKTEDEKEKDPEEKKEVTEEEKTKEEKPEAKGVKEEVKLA
T3 sequence (Q92769 whole entry): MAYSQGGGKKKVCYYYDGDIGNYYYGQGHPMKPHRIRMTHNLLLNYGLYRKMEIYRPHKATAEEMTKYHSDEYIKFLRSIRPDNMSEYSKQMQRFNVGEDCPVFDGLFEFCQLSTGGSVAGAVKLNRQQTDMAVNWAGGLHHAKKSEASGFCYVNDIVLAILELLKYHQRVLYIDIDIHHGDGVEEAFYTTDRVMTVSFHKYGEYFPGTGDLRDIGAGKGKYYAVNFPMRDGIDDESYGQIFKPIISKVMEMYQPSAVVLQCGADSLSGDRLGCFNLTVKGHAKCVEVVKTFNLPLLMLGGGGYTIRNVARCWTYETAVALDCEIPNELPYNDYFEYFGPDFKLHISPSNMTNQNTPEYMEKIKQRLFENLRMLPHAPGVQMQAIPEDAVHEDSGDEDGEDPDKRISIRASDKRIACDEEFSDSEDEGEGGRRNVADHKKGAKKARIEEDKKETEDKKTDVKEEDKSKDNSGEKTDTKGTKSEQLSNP
Histone deacetylase 4, sequence (P56524 whole entry): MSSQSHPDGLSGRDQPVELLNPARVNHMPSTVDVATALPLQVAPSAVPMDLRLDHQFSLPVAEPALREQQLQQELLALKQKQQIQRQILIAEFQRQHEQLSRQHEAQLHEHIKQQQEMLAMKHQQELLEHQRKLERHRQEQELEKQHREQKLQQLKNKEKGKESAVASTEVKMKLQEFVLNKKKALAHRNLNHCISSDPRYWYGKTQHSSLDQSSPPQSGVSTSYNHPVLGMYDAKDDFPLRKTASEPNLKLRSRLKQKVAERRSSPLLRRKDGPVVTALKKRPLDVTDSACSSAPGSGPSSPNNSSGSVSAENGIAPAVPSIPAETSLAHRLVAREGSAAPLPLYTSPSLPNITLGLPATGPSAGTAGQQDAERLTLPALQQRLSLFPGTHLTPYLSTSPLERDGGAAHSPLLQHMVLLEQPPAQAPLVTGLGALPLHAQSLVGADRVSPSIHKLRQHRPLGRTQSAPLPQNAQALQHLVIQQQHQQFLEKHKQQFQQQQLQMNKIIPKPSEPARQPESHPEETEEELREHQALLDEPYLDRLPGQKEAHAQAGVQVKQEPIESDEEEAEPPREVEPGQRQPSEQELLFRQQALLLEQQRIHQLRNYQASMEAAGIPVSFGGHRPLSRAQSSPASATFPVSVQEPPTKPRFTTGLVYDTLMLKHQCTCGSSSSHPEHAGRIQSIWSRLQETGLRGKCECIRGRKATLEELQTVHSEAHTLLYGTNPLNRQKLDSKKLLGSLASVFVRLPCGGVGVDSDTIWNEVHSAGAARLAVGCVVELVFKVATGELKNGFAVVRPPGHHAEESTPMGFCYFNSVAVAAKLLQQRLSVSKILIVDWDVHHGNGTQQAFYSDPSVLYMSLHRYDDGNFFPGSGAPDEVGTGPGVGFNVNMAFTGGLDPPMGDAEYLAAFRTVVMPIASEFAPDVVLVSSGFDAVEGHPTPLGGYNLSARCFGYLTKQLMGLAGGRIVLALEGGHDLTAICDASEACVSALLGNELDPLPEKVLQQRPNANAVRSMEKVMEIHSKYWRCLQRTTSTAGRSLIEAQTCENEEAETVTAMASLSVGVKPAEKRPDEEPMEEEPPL
Histone deacetylase 3, sequence (O15379 whole entry): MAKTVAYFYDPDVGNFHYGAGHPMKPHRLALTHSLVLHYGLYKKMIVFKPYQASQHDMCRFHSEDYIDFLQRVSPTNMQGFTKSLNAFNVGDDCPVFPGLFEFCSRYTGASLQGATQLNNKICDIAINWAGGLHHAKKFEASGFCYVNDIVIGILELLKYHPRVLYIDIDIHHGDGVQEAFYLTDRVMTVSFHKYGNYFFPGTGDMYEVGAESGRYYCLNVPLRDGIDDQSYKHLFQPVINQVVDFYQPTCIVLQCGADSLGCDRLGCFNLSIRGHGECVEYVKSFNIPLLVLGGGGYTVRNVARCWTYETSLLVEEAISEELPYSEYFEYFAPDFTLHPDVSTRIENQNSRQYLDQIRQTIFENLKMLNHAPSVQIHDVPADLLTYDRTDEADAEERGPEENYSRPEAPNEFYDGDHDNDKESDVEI

Turning to `COc1cc(/C=C/C(=O)CC(=O)/C=C/c2ccc(/C=C/C(=O)NO)cc2)ccc1O`, the IC50 in [1] is 0.38 nM; against Histone deacetylase 1 [2] it was 0.38 nM; in the data set on A549 [3], 5330 nM; at Histone deacetylase 2 [9] it was 0.38 nM. The half-life in data set [4] came out at 40.7 min; in [5] it was 32.7 min; in data set [6] it was 91.6 min. Further, in the data set with U-87 MG [7], the inhibition in vivo at 20 mg/kg was 52.1%. The bioavailability in [8] turned out to be 40.2%.

As to `O=C(CCCCCC(=O)N(Cc1ccc(Br)s1)c1ccc(OCCN2CCOCC2)cc1)NO`, the IC50 at 48 h in [10], in data set [11] and in data set [12] was above 100000 nM in each case. The inhibition in vivo at 20 mg/kg in the data set with MDA-MB-231 is around 95%. The concentration for half-maximal inhibition (IC50) on Histone deacetylase 2 [13] was 3.22 nM.

Regarding `CNCCOc1ccc(-c2cc(=O)c3cc(OCCCCCC(=O)NO)cc(O)c3o2)cc1`, the IC50 in [14] was 30 nM; at Histone deacetylase 3 it was 30 nM; against Histone deacetylase 4, 30 nM; in [15], 11600 nM; at Histone deacetylase 2 [18] it was 30 nM; in data set [19] it was 9490 nM. At Histone deacetylase 1 [20], the midpoint of inhibition, the IC50, lay at 30 nM. The Survival in [16] came out at 27 days. In addition, the Activity in [17] is given as around 65%.

On to `O=C(O)CCCc1ccc(N(CCCl)CCCl)cc1` [CHLORAMBUCIL], for which the results for the 50% inhibitory concentration (IC50) in the data set on HL-60 and in the data set with U-937 were 21100 nM and 37700 nM, respectively.

Consider `O=C(CCCCCNC(=O)c1cc(O)c2c(c1)C(=O)c1cccc(O)c1C2=O)NO`, for which the IC50 with U-87 MG [21] and in the data set with U-251 was 5500 nM throughout.

In the case of `COc1cc(/C=C/C(=O)c2ccc(OCCCCCC(=O)NO)cc2)cc(OC)c1OC`, the IC50 in the data set on HCT-116 [22] was determined as 536 nM; against Histone deacetylase 2 [23], 60 nM; in the data set with HepG2 [24], 536 nM; in the data set with A549 [25] it was 536 nM; in the data set on MCF7 [26] it was 536 nM; at Histone deacetylase 1 [27], 60 nM.

With `CCCC(CCC)C(=O)N[C@@H](Cc1ccccc1)C(=O)NO`, the half-inhibitory concentration (IC50) in the data set on MCF7 [28] was 9620 nM; in the data set on HCT-116 [30] it was 9620 nM; in the data set on HepG2 [31], 9620 nM; at Histone deacetylase 1 [32], 2.86 nM; in the data set on HeLa, 9620 nM. The Activity with Ehrlich [29] is recorded as around 36%. For the same molecule, the ILS at 0.5 mg/kg in the data set with Ehrlich [33] was determined as 131%.

For the molecule `Cc1nc(C)c(C(=O)Nc2cccc(C(=O)NO)c2)nc1C`, the IC50 was found to be 7630 nM in the data set with SH-SY5Y, 4990 nM with HT-29 and 169 nM in data set [34].

Broadly, the IC50 is the concentration that inhibits the measured activity by half. One may read the half-life as the time in which the quantity being followed falls by half. For orientation: bioavailability means the share of a dose that reaches the circulation, judged against a reference dose that is usually intravenous. In general, ILS refers to the gain in survival time of treated over control animals, in per cent.
